From US8691811B2, “Quinazolinone linked pyrrolo[2,1-c][1,4]benzodiazepine hybrids as potential anticancer agents and process for the preparation thereof” (Council of Scientific & Industrial Research, priority 2008, dated 2014)

Columns and labels:
SK-OV-3 = assay: NCI cytotoxicity (SRB, 48 h), SK-OV-3; type: cell-based, human; conditions: SK-OV-3, ovarian
Experimental: (§1) The C8-linked quinazolinone-PBD hybrid (5d) has been tested against sixty human tumour cell lines derived from nine cancer types (leukemia, non-small cell lung cancer, colon cancer, CNS cancer, melanoma, ovarian cancer, renal cancer, prostate cancer and breast cancer) as per NCI protocol. For each compound, dose response curves for individual cell lines have been measured at a minimum of five concentrations at 10 fold dilutions. A protocol of 48 h continuous drug exposure has been used, and a sulforhodamine B (SRB) protein assay was used to estimate cell viability or growth. The concentration for 50% cell growth inhibition (GI50), total cell growth inhibition (TGI, 0% growth) and 50% cell death (LC50, […]) compared with the control has been calculated (Table-1). Compound 5d has been evaluated for their in vitro cytotoxicity in sixty cell lines from nine human cancer types of lung (Hop-62, NCI-H226, NCI-H522), leukemia (K-562, SR), colon (HCT-116, HCT-15, HCC-2998), CNS(SF-539), melanoma (SK-MEL-5, UACC-62, M14), ovarian (IGROV1), renal (A498), prostate (PC3) breast (BT-549, MDA-MB-435, HS578T) origin. The results are expressed as percent of cell growth determined relative to that of untreated control cells (Table 2). The representative compound 5d has shown significant cytotoxicity against some cancer cell lines.

K-562 = assay: NCI cytotoxicity (SRB, 48 h), K-562; type: cell-based, human; conditions: K-562, leukemia
Experimental: as §1

Colon cancer cell lines = assay: NCI cytotoxicity (SRB, 48 h), colon panel; type: cell-based, human; conditions: Colon panel average
Experimental: as §1

[1] = tested on: duplex-form calf thymus DNA (CT-DNA); assay: Thermal denaturation studies with calf thymus DNA; type: binding; conditions: [PBD]:[DNA] molar ratio 1:5, CT-DNA 100 μM, ligand 20 μM, pH 7.00
Experimental: Compounds have been subjected to thermal denaturation studies with duplex-form calf thymus DNA (CT-DNA) using a modification of a reported procedure. Working solutions in aqueous buffer ([…] NaH2PO4/Na2HPO4, 1 mM Na2EDTA, pH 7.00+0.01). containing CT-DNA (100 μm in phosphate) and the PBD (20 μm) have been prepared by addition of concentrated PBD solutions in DMSO to obtain a fixed [PBD]/[DNA] molar ratio of 1:5. The DNA-PBD solutions have been incubated at 37° C. for 0 and 18 hrs prior to analysis. Samples have been monitored at 260 nm using a Beckman DU-800 spectrophotometer fitted with high performance temperature controller, and heated at 1° C. min^−1 in the 40-110° C. range. DNA helix→coil transition temperatures (Tm) have been obtained from the maxima in the d(A260)/dT derivative plots. Drug-induced alterations in DNA melting behavior are given by: ΔTm=Tm(DNA+PBD)−Tm(DNA alone), where the Tm value for the PBD-free CT-DNA is 68.5±0.01.
The DNA-binding for these novel C8-linked quinazolinone-PBD hybrids has been examined by thermal denaturation studies using calf thymus (CT) DNA. […] Data for 5b, 5c, 5d, and 5k, 5l, 5m and DC-81 are included in Table 5 for comparison.

SK-MEL-2 = assay: NCI cytotoxicity (SRB, 48 h), SK-MEL-2; type: cell-based, human; conditions: SK-MEL-2, melanoma
Experimental: as §1

PC-3 = assay: NCI cytotoxicity (SRB, 48 h), PC-3; type: cell-based, human; conditions: PC-3, prostate
Experimental: as §1

CCRF-CEM = assay: NCI cytotoxicity (SRB, 48 h), CCRF-CEM; type: cell-based, human; conditions: leukemia
Experimental: as §1

HCC-2998 = assay: NCI cytotoxicity (SRB, 48 h), HCC-2998; type: cell-based, human; conditions: HCC-2998, colon
Experimental: as §1

[2] = tested on: Ovarian cancer cell lines; assay: NCI cytotoxicity (SRB, 48 h), ovarian panel; type: cell-based, human; conditions: Ovarian panel average
Experimental: as §1

SNB-75 = assay: NCI cytotoxicity (SRB, 48 h), SNB-75; type: cell-based, human; conditions: SNB-75, CNS
Experimental: as §1

HL-60(TB) = assay: NCI cytotoxicity (SRB, 48 h), HL-60(TB); type: cell-based, human; conditions: leukemia
Experimental: as §1

SK-MEL-28 = assay: NCI cytotoxicity (SRB, 48 h), SK-MEL-28; type: cell-based, human; conditions: SK-MEL-28, melanoma
Experimental: as §1

OVCAR-5 = assay: NCI cytotoxicity (SRB, 48 h), OVCAR-5; type: cell-based, human; conditions: OVCAR-5, ovarian
Experimental: as §1

[3] = tested on: Prostate cancer cell lines; assay: NCI cytotoxicity (SRB, 48 h), prostate panel; type: cell-based, human; conditions: Prostate panel average
Experimental: as §1

786-0 = assay: NCI cytotoxicity (SRB, 48 h), 786-0; type: cell-based, human; conditions: 786-0, renal
Experimental: as §1

OVCAR-8 = assay: NCI cytotoxicity (SRB, 48 h), OVCAR-8; type: cell-based, human; conditions: OVCAR-8, ovarian
Experimental: as §1

MALME-3M = assay: NCI cytotoxicity (SRB, 48 h), MALME-3M; type: cell-based, human; conditions: melanoma
Experimental: as §1

HCT-15 = assay: NCI cytotoxicity (SRB, 48 h), HCT-15; type: cell-based, human; conditions: HCT-15, colon
Experimental: as §1

NCI-H23 = assay: NCI cytotoxicity (SRB, 48 h), NCI-H23; type: cell-based, human; conditions: NCI-H23, non-small cell lung
Experimental: as §1

Leukemia cell lines = assay: NCI cytotoxicity (SRB, 48 h), leukemia panel; type: cell-based, human; conditions: Leukemia panel average
Experimental: as §1

NCI-H522 = assay: NCI cytotoxicity (SRB, 48 h), NCI-H522; type: cell-based, human; conditions: NCI-H522, non-small cell lung
Experimental: as §1

SN12C = assay: NCI cytotoxicity (SRB, 48 h), SN12C; type: cell-based, human; conditions: renal
Experimental: as §1

SNB-19 = assay: NCI cytotoxicity (SRB, 48 h), SNB-19; type: cell-based, human; conditions: SNB-19, CNS
Experimental: as §1

BT-549 = assay: NCI cytotoxicity (SRB, 48 h), BT-549; type: cell-based, human; conditions: BT-549, breast
Experimental: as §1

NCI/ADR-RES = assay: NCI cytotoxicity (SRB, 48 h), NCI/ADR-RES; type: cell-based, human; conditions: breast
Experimental: as §1

Breast cancer cell lines = assay: NCI cytotoxicity (SRB, 48 h), breast panel; type: cell-based, human; conditions: Breast panel average
Experimental: as §1

SF-268 = assay: NCI cytotoxicity (SRB, 48 h), SF-268; type: cell-based, human; conditions: SF-268, CNS
Experimental: as §1

HOP-92 = assay: NCI cytotoxicity (SRB, 48 h), HOP-92; type: cell-based, human; conditions: HOP-92, non-small cell lung
Experimental: as §1

Renal cancer cell lines = assay: NCI cytotoxicity (SRB, 48 h), renal panel; type: cell-based, human; conditions: Renal panel average
Experimental: as §1

In the case of COc1cc2c(cc1OCCCCCOc1ccc(-n3c(C)nc4ccccc4c3=O)cc1)N=C[C@@H]1CCCN1C2=O [5d, 7-methoxy-8-{5-[4-(2-methyl-4-oxo-3,4-dihydro-3-quinazolinyl)phenoxy]pentyloxy-}-(11aS)-1,2,3,11a-tetrahydro-5H-pyrrolo[2,1-c][1,4]benzodiazepine-5-one], the GI50 (SK-OV-3) is reported as 430 nM, the GI50 (K-562) is reported as 60 nM and the “Log10 GI50” value (Colon cancer cell lines) is reported as −6.59 mol/L. The “Log10 LC50” value (Colon cancer cell lines) was −5.49, the “ΔTm after incubation at 37° C. for 0 h” value ([1]; 0 h) was 1.1 °C and the “ΔTm after incubation at 37° C. for 18 h” value ([1]; 18 h) was 2.3 °C. It also gave a GI50 (SK-MEL-2) of 420 nM, a GI50 (PC-3) of 290 nM and a GI50 (CCRF-CEM) of 160 nM. The GI50 (HCC-2998) was 260 nM, the “Log10 GI50” value [2] was −6.52 mol/L and the “Log10 LC50” value [2] was −4.79. The GI50 (SNB-75) was 380 nM, the GI50 (HL-60(TB)) was 180 nM and the GI50 (SK-MEL-28) was 200 nM. The GI50 (OVCAR-5) was 330 nM, the “Log10 GI50” value [3] was −6.55 mol/L and the “Log10 LC50” value [3] was −5.19. For the same compound, the GI50 (786-0) was 170 nM, the GI50 (OVCAR-8) was 340 nM and the GI50 (MALME-3M) was 230 nM. The GI50 (HCT-15) was 1090 nM, the GI50 (NCI-H23) was 230 nM and the “Log10 GI50” value (Leukemia cell lines) was −6.85 mol/L. For the same compound, the “Log10 LC50” value (Leukemia cell lines) was −5.30, the GI50 (NCI-H522) was 120 nM and the GI50 (SN12C) was 240 nM. It also gave a GI50 (SNB-19) of 280 nM, a GI50 (BT-549) of 110 nM and a GI50 (NCI/ADR-RES) of 1730 nM. For the same compound, the “Log10 GI50” value (Breast cancer cell lines) was −6.66 mol/L, the “Log10 LC50” value (Breast cancer cell lines) was −4.90 and the GI50 (SF-268) was 260 nM. For the same compound, the GI50 (HOP-92) was 350 nM, the “Log10 GI50” value (Renal cancer cell lines) was −6.62 mol/L and the “Log10 LC50” value (Renal cancer cell lines) was −5.09.
